Experimental data as given in ChEMBL document CHEMBL3044691, “The stability and degradation of a new biological pesticide, pyoluteorin” (Pest Manag Sci, 2010).

What was measured:
Type in all cases: physicochemical
[1] = Half life in phosphate buffer at pH 7.8 at room temperature under sunlight
[2] = Half life in phosphate buffer at pH 7.4 at room temperature under sunlight
[3] = Half life in phosphate buffer at pH 7 at room temperature under sunlight
[4] = Half life in phosphate buffer at pH 6.6 at room temperature under sunlight
[5] = Half life in phosphate buffer at pH 6.2 at room temperature under sunlight
[6] = Half life in phosphate buffer at pH 5.8 at room temperature under sunlight
[7] = Half life under sunlight at room temperature
[8] = Half life under dark condition at room temperature
[9] = Half life under incandescent lamp light at room temperature
[10] = Half life under high-pressure mercury lamp light at room temperature
[11] = Half life under fluorescent lamp light at room temperature
[12] = Half life in phosphate buffer at pH 7.8 under dark condition
[13] = Half life in phosphate buffer at pH 7.4 under dark condition
[14] = Half life in phosphate buffer at pH 7 under dark condition
[15] = Half life in phosphate buffer at pH 6.2 under dark condition
[16] = Half life in phosphate buffer at pH 6.6 under dark condition
[17] = Half life in water solution at 28 degC under dark condition
[18] = Half life in water solution at 121.5 mg/l initial concentration under dark condition
[19] = Half life in water solution at 37 degC under dark condition
[20] = Half life in water solution at 54 degC under dark condition
[21] = Half life in water solution at 70 degC under dark condition
[22] = Half life in phosphate buffer at pH 5.8 under dark condition
[23] = Half life in water solution at 626.5 mg/l initial concentration under dark condition
[24] = Half life in water solution at 502.5 mg/l initial concentration under dark condition
[25] = Half life in water solution at 375 mg/l initial concentration under dark condition
[26] = Half life in water solution at 248.5 mg/l initial concentration under dark condition

SMILES: O=C(c1cc(Cl)c(Cl)[nH]1)c1c(O)cccc1O [PYOLUTEORIN]
- half-life [1]: 0.42 days
- half-life [2]: 0.58 days
- half-life [3]: 0.69 days
- half-life [4]: 0.92 days
- half-life [5]: 1.29 days
- half-life [6]: 1.77 days
- half-life [7]: 3.5 days
- half-life [8]: 24.9 days
- half-life [9]: 23.5 days
- half-life [10]: 3.1 days
- half-life [11]: 23.2 days
- half-life [12]: 23.9 days
- half-life [13]: 32.8 days
- half-life [14]: 54.1 days
- half-life [15]: 42 days
- half-life [16]: 50.2 days
- half-life [17]: 30 days
- half-life at 121.5 mg/l [18]: 26.5 days
- half-life [19]: 26.5 days
- half-life [20]: 22 days
- half-life [21]: 18.8 days
- half-life [22]: 34.8 days
- half-life at 626.5 mg/l [23]: 51.7 days
- half-life at 502.5 mg/l [24]: 44.4 days
- half-life at 375 mg/l [25]: 37.7 days
- half-life at 248.5 mg/l [26]: 31.1 days
